Experiment [1] deals with Oocyte. The experiment is described as follows: (§1) Antagonist activity at GABAC rho1 receptor expressed in Xenopus laevis oocytes assessed as reduction of GABA-induced chloride ion currents. To be noted: Homo sapiens. Type of experiment: functional, cell-based.
Experiment [2] relates to Oocyte. The experiment is described as follows: Activity at GABAC rho1 receptor expressed in Xenopus laevis oocytes assessed as activation of GABA-induced chloride ion currents. The format is cell-based. The conditions noted are these: Homo sapiens.
Experiment [3] is described as follows: as §1. Type of experiment: functional, cell-based. To be noted: Homo sapiens, Oocyte.

The source made the active and inactive calls. The rule behind the calls is not given here.

Take `NCCOP(=O)(O)Cc1ccccc1`: the result in the experiment on Oocyte [1] and in the experiment with Oocyte [2] was inactive. With `CCCCP(=O)(O)OCCN`, the IC50 in experiment [3] is 68.2 µM. The same measure, in the same setting: next, `CP(=O)(O)C1=CCNCC1`: 0.67 µM.

A word on the IC50: it is the concentration at which inhibition is half-maximal.

The values are drawn from ChEMBL document CHEMBL1139960 (Bioorg Med Chem Lett, 2007).
